Legend:
MET = MET biochemical kinase assay; parameters: species or system human; concentration or dose not given beside the values
In short: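 Human MET was captured from cell lysates onto ELISA plates via goat anti-rabbit Fc and rabbit polyclonal antibody to the MET cytoplasmic domain. After washing, test compounds and kinase buffer with ATP and divalent metal ions were added. Phosphotyrosine was detected with HRP-conjugated anti-phosphotyrosine antibody and TMB colorimetric read-out.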

EGFR = target: T1, EGFR (Homo sapiens, UniProt P00533); assay: EGFR ELISA assay (in vitro kinase activity, EGFR captured from A431 cell lysate); format: biochemical; parameters: concentration or dose not given beside the values
T1 construct: Add 7 ug A431 cell lysate per well (EGFR source); endogenous in cells; host or cells: A431
T1 sequence (P00533 25-1210): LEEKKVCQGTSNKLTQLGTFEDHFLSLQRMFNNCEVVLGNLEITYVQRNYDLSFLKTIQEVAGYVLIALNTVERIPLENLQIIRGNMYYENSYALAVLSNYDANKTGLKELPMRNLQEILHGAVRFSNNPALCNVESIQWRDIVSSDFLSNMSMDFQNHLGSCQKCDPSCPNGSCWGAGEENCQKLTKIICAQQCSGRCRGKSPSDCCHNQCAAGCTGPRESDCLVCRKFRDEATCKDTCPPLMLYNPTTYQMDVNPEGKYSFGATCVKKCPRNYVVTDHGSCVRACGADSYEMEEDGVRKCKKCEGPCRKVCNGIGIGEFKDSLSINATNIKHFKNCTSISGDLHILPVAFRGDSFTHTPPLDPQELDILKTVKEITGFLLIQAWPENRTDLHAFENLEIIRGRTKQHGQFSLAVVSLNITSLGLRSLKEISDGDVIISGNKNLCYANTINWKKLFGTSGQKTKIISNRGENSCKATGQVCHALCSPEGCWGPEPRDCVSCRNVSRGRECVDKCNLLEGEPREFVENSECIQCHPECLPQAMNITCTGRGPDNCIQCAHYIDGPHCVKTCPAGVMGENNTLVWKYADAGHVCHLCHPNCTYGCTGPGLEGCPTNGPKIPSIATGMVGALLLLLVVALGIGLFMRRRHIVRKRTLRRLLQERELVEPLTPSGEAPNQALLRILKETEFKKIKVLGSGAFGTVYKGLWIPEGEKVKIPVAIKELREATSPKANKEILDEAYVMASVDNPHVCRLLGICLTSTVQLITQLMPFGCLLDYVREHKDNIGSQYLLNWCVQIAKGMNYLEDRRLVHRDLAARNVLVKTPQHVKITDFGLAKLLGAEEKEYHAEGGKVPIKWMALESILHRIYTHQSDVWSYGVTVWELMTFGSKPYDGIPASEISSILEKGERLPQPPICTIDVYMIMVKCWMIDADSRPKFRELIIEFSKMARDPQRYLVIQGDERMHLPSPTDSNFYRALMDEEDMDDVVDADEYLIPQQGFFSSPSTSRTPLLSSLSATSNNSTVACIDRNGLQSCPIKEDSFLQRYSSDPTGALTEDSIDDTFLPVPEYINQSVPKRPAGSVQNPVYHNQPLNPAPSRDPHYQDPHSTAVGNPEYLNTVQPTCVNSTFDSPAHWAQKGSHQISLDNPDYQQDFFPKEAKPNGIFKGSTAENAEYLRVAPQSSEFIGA
In short: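 EGFR from A431 lysate was captured on anti-EGFR antibody-coated plates and preincubated with compounds for 30 min. Autophosphorylation ran 5 min with 3 uM ATP and 5 mM MnCl2 (final), stopped with 20 mM EDTA. Phosphotyrosine was detected by anti-pTyr ELISA with ABTS/H2O2, read at 410 nm.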

Structure (SMILES)	Met Kinase % Inhibition (MET) [%]	Biochem EGFR %Inhibition (EGFR) [%]
Cc1ccc(C=C2C(=O)Nc3ccc(Br)c(C)c32)s1 [10717/C07]	16.5	28.7
Cc1[nH]c(C=C2C(=O)Nc3ccc(Br)c(C)c32)c(Br)c1Br [10717/C11]	71.8	67.3
CNS(=O)(=O)c1ccc2c(c1)C(=Cc1ccc(Cl)s1)C(=O)N2 [10721/D07]	-6.8	23.0
O=C1Nc2ccc(CCCl)cc2C1=Cc1c(F)cc(F)cc1F [10720/G02]	20.1	-13.1
CNS(=O)(=O)c1ccc2c(c1)C(=Cc1ccc(OC)c(OC)c1)C(=O)N2 [10720/D04]	23.6	-7.7
Cc1c(Br)ccc2c1C(=Cc1ccc[nH]1)C(=O)N2 [10717/C09]	47.7	8.1
Cc1c(Br)ccc2c1C(=Cc1cccn1C)C(=O)N2 [10717/C04]	25.0	14.4
Cc1cc(C)c(C=C2C(=O)Nc3c(Br)cc(Br)cc32)[nH]1 [10721/A08]	29.9	24.0
COc1ccc(O)c(C=C2C(=O)Nc3ccc(S(=O)(=O)Nc4ccc(C(F)(F)F)cc4)cc32)c1 [10720/E10]	23.1	49.1
Cc1c(Br)ccc2c1C(=Cc1ccc(Cl)s1)C(=O)N2 [10721/C07]	25.7	24.6
O=C1Nc2ccc(S(=O)(=O)Nc3ccc(C(F)(F)F)cc3)cc2C1=Cc1ccccc1O [10720/E05]	55.4	40.7
CNS(=O)(=O)c1ccc2c(c1)C(=Cc1cc(C)c(C)s1)C(=O)N2 [10721/D04]	35.3	5.0
COc1cc(O)ccc1C=C1C(=O)Nc2ccc(CCCl)cc21 [10720/G03]	42.1	10.0
CC(C)(C)c1cc(C=C2C(=O)Nc3ccc(I)cc32)ccc1O [10721/B09]	28.3	38.9
O=C1Nc2ccc(CCCl)cc2C1=Cc1ccccc1 [10720/G06]	21.6	-10.4
CCOc1cc(C=C2C(=O)Nc3ccc(CCCl)cc32)ccc1O [10720/G09]	49.5	-19.7
CNS(=O)(=O)c1ccc2c(c1)C(=Cc1ccccc1O)C(=O)N2 [10720/D05]	9.8	-24.1
O=C1Nc2ccc(S(=O)(=O)Nc3ccc(C(F)(F)F)cc3)cc2C1=Cc1ncc[nH]1 [10720/E11]	-10.4	-65.5
CNS(=O)(=O)c1ccc2c(c1)C(=Cc1cc3c([nH]1)CCCC3)C(=O)N2 [10721/D05]	91.9	47.0
Cc1c(Br)ccc2c1C(=Cc1c[nH]c3ccccc13)C(=O)N2 [10717/C06]	44.1	-49.7
COc1cc(O)ccc1C=C1C(=O)Nc2ccc(S(=O)(=O)N3CCOCC3)cc21 [10720/F03]	44.1	7.1
CC(C)(C)c1cc(C=C2C(=O)Nc3c(Br)cc(Br)cc32)cc(Br)c1O [10721/A10]	68.9	31.1
Cc1cc(C)c(C=C2C(=O)Nc3ccc(I)cc32)[nH]1 [10721/B08]	64.5	64.0
O=C1Nc2ccc(S(=O)(=O)N3CCOCC3)cc2C1=Cc1ccccc1O [10720/F05]	39.8	-14.2
CC(C)(C)c1cc(C=C2C(=O)Nc3c(Br)cc(Br)cc32)cc(C(C)(C)C)c1O [10721/A11]	23.9	24.6
Cn1c(C=C2C(=O)Nc3c(Br)cc(Br)cc32)nc2ccccc21 [10721/A02]	41.1	17.8

Structure (SMILES)	Met Kinase % Inhibition (MET) [%]	Biochem EGFR %Inhibition (EGFR) [%]
CNS(=O)(=O)c1ccc2c(c1)C(=Cc1nn(C)cc1Cl)C(=O)N2 [10721/D03]	19.5	11.6
O=C1Nc2ccc(S(=O)(=O)N3CCOCC3)cc2C1=Cc1c(F)cc(F)cc1F [10720/F02]	17.8	-19.3
CNS(=O)(=O)c1ccc2c(c1)C(=Cc1cc([N+](=O)[O-])cc(CCl)c1O)C(=O)N2 [10721/D06]	9.0	44.5
Cc1c(Br)ccc2c1C(=Cc1cc([N+](=O)[O-])cc(CCl)c1O)C(=O)N2 [10721/C06]	56.4	80.2
CSc1ccc(C=C2C(=O)Nc3ccc(CCCl)cc32)s1 [10720/G07]	12.9	-8.0
Cc1cc(O)cc(O)c1C=C1C(=O)Nc2ccc(S(=O)(=O)N3CCOCC3)cc21 [10720/F08]	36.2	-39.6
Cc1c(Br)ccc2c1C(=Cc1ccc(O)c(C(C)(C)C)c1)C(=O)N2 [10721/C09]	-4.7	39.8
CNS(=O)(=O)c1ccc2c(c1)C(=Cc1nc3ccccc3n1C)C(=O)N2 [10721/D02]	22.5	21.5
Cc1cc(O)cc(O)c1C=C1C(=O)Nc2ccc(S(=O)(=O)Nc3ccc(C(F)(F)F)cc3)cc21 [10720/E08]	55.1	37.4
CCOc1cc(C=C2C(=O)Nc3ccc(S(=O)(=O)Nc4ccc(C(F)(F)F)cc4)cc32)ccc1O [10720/E09]	43.4	56.4
CSc1ccc(C=C2C(=O)Nc3ccc(S(=O)(=O)N4CCOCC4)cc32)s1 [10720/F07]	64.6	35.2
COc1cccc(O)c1C=C1C(=O)Nc2ccc(Br)c(C)c21 [10717/C10]	22.8	17.5
O=C1Nc2ccc(S(=O)(=O)Nc3ccc(C(F)(F)F)cc3)cc2C1=Cc1ccccc1 [10720/E06]	33.1	30.1
COc1ccc(C=C2C(=O)Nc3ccc(S(=O)(=O)N4CCOCC4)cc32)cc1OC [10720/F04]	43.1	-11.7
Cc1cc(O)cc(O)c1C=C1C(=O)Nc2ccc(CCCl)cc21 [10720/G08]	26.7	-9.5
Cc1c(Br)ccc2c1C(=Cc1cc(C(C)(C)C)c(O)c(C(C)(C)C)c1)C(=O)N2 [10721/C11]	3.7	14.1
O=C1Nc2ccc(S(=O)(=O)Nc3ccc(C(F)(F)F)cc3)cc2C1=Cc1c(F)cc(F)cc1F [10720/E02]	18.0	25.2
CC(C)(C)c1cc(C=C2C(=O)Nc3c(Br)cc(Br)cc32)ccc1O [10721/A09]	23.0	28.0
CC(C)(C)c1cc(C=C2C(=O)Nc3ccc(I)cc32)cc(C(C)(C)C)c1O [10721/B11]	6.7	34.6
CNS(=O)(=O)c1ccc2c(c1)C(=Cc1ccccc1)C(=O)N2 [10720/D06]	31.8	-35.0
Cc1c(Br)ccc2c1C(=Cc1cc(Br)c(O)c(C(C)(C)C)c1)C(=O)N2 [10721/C10]	44.6	17.4
COc1ccc(C=C2C(=O)Nc3ccc(CCCl)cc32)cc1OC [10720/G04]	5.0	-34.1
CCOc1cc(C=C2C(=O)Nc3ccc(S(=O)(=O)N4CCOCC4)cc32)ccc1O [10720/F09]	49.2	6.4
COc1ccc(O)c(C=C2C(=O)Nc3ccc(CCCl)cc32)c1 [10720/G10]	55.9	20.4
Cc1c(Br)ccc2c1C(=Cc1ccc(Br)cc1)C(=O)N2 [10717/C08]	27.3	24.3
